Results from US20070036871A1, “TECHNIQUE FOR TREATMENT AND PREVENTION OF FUNGAL DISEASES IN GROWING GRAPES BY APPLICATION OF A SODIUM CHLORITE, UREA SULFURIC ACID SOLUTION” (priority 2005, published 2007).
“And” between values parts separate entries of the source, which are not always exact repeats. Identical values can stand only once.

System: powdery mildew
Assay: Field trials of foliar fungicide treatments on Carignane grape vines against powdery mildew (Example IV)
Format: in vivo
[1] = individual plot data, rated July 3 after June 22 treatment
[2] = individual plot data, rated July 12 after July 3 treatment
[3] = individual plot data, rated June 22 after June 12 treatment
[4] = rated July 3 after June 22 treatment (10 days after second treatment), average of plots
[5] = rated July 12 after July 3 treatment (10 days after third treatment), average of plots
[6] = rated June 22 after June 12 treatment (10 days after first treatment), average of plots

Structure (SMILES): [S] [4-6 lb/acre sulphur, sulphur]
- % fruit w/ symptoms [1]: 20% and 40% and 15% and 5%
- % leaves w/ symptoms [1]: 10% and 20% and 2% and 8%
- % severity of infected fruit [1]: 15% and 30% and 10% and 5%
- % severity of infected leaves [1]: 15% and 20% and 4% and 5%
- % fruit w/ symptoms [2]: 10% and 60% and 40% and 20%
- % leaves w/ symptoms [2]: 2% (3×) and 15%
- % severity of infected fruit [2]: 10% (2×) and 40% and 25%
- % severity of infected leaves [2]: 5% (3×) and 2%
- % fruit w/ symptoms [3]: 30% and 40% and 20% and 15%
- % leaves w/ symptoms [3]: 2% (2×) and 20% and 5%
- % severity of infected fruit [3]: 8% and 30% and 6% and 20%
- % severity of infected leaves [3]: 2% (2×) and 18% and 5%
- % fruit w/ symptoms [4]: 20%
- % leaves w/ symptoms [4]: 10%
- % severity of infected fruit [4]: 15%
- % severity of infected leaves [4]: 11% and 20%
- % fruit w/ symptoms [5]: 32.5%
- % leaves w/ symptoms [5]: 5.25%
- % severity of infected fruit [5]: 21.25%
- % severity of infected leaves [5]: 4.25%
- % fruit w/ symptoms [6]: 26.25%
- % leaves w/ symptoms [6]: 7.25%
- % severity of infected fruit [6]: 16%
- % severity of infected leaves [6]: 6.75%
- fungal disease control (in words) (ten days after the third treatment): substantially lower disease infection in leaves over the low rate NaClO2+US acid treatment
